From ChEMBL document CHEMBL1201862, “PubChem BioAssay data set” (2004)
Activity calls are given as the source filed them.

Key:
[1] = Luminescence Cell-Based Dose Response Follow up to Identify Inhibitors of Platelet Dense Granule Release. [Related pubchem assays (depositor defined):AID1663, AID1678, AID2398]; format: functional
DNA topoisomerase = DNA topoisomerase (Yersinia pestis, UniProt A0A2S9PM60); test: Y. pestis Topo-I inhibitors, cleavage product readout, dose response, biochemical, cherry-pick (AID 588525)
INS1 = test: beta cell apoptosis inhibitors, cytokine rescue, dose response, luminescence, retest (AID 449756); format: functional, cell-based; conditions: Rattus norvegicus;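 note: cell death triggered by IL-1 beta plus TNF-alpha plus IFN-gamma mixture; protective hits raise ATP signal compared with cytokine alone wells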
Jurkat [2] = test: antigen receptor-induced NF-kB inhibitors, dose response, Jurkat, luciferase reporter, luminescence, B- and T-cell (AID 489004); format: functional, cell-based; conditions: Homo sapiens;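 note: NF-kB luciferase reporter Jurkat cells stimulated with PMA plus ionomycin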
[3] = cytotoxicity in HEK-293T NF-kB-Luc cells, dose response, cytotoxicity control for B/T-cell NF-kB inhibitor project, cell-based, uHTS hits (AID 489019); format: functional;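 note: IC50 reflects cytotoxicity as loss of cell viability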
[4] = target: T1, Endoribonuclease toxin MazF (Escherichia coli K-12, UniProt P0AE70); test: MazF toxin RNase activators, dose response, biochemical, fluorescence, single-stranded RNA substrate, uHTS hits (AID 588481); format: functional
[5] = target: T1, Endoribonuclease toxin MazF; test: fluorescent RNA oligo signal without MazF, dose response, counter-screen for MazEF activator project, biochemical, fluorescence, single-stranded RNase substrate (AID 588502); format: functional
HEK293 [6] = test: cytotoxicity in HEK293T NF-kB-Luc cells, SAR follow-up, cytotoxicity control for NF-kB activator project, cell-based, resazurin fluorescence (AID 493251); format: functional; conditions: Homo sapiens
Jurkat [7] = test: SAR Analysis of small molecule inhibitors of T-cell specific antigen receptor-induced NF-kB activation in a Jurkat cell line using a luminescence assay - Set 2. [Related pubchem assays (depositor defined):AID435003, AID435012, AID465]; format: functional, cell-based; conditions: Homo sapiens
HEK293 [8] = test: SAR Analysis of small molecule inhibitors of T-cell specific antigen receptor-induced NF-kB activation in a HEK-293T cell line using a luminescence assay - Set 2. [Related pubchem assays (depositor defined):AID435003, AID435012, AID489026]; format: functional, cell-based; conditions: Homo sapiens
[9] = target: T2, Polyadenylate-binding protein 1 (Homo sapiens, UniProt P11940); test: PABP1 MLLE–PAM2 binding inhibitor potency, dose response, biochemical, fluorescence polarization, FITC-PAM2 peptide (AID 602259); format: functional; conditions: read-out: IC50_Mean
[10] = target: T2, Polyadenylate-binding protein 1; test: PABP1 MLLE–PAM2 interaction inhibitors, dose response, miRNA deadenylation inhibitor project, biochemical, fluorescence polarization, Cy5-PAM2 peptide, secondary (AID 602260); format: functional; conditions: read-out: IC50_Mean
[11] = target: T3, Type-1 angiotensin II receptor (Homo sapiens, UniProt P30556); test: AT1 receptor antagonists, dose response, selectivity assay for APJ receptor antagonist project, cell-based, uHTS hits (AID 463214); format: functional;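 note: antagonist potency against angiotensin II stimulated AT1 response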
T3 sequence (P30556 whole entry): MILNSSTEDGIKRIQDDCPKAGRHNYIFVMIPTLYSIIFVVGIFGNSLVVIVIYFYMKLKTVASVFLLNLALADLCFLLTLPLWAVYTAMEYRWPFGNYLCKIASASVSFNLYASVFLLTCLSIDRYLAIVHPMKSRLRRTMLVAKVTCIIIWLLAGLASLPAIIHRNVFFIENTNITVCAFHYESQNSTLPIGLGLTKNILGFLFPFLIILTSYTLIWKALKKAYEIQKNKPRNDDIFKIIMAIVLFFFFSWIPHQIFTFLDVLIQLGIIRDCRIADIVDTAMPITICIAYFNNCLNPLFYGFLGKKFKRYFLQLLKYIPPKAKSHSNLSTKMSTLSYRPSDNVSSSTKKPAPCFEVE

Beta-galactosidase = Beta-galactosidase (Escherichia coli, UniProt Q8VNN2); test: PubChem AID 485352; format: functional
Cysteine protease ATG4B = Cysteine protease ATG4B (Homo sapiens, UniProt Q9Y4P1); test: ATG4B protease inhibitors, dose response, biochemical, fluorescence, set 2 (AID 588584); format: functional
Phospholipase A2 = Phospholipase A2 (Homo sapiens, UniProt P04054); test: PLA2 enzyme inhibitors, dose response, counter-screen for ATG4B inhibitor project, biochemical, set 2 (AID 588586); format: functional
[12] = target: DNA dC->dU-editing enzyme APOBEC-3A (Homo sapiens, UniProt P31941); test: APOBEC3A DNA deaminase inhibitors, dose response, biochemical (AID 504722); format: functional
[13] = target: T4, Mannose-6-phosphate isomerase (Homo sapiens, UniProt P34949); test: inhibitors of human PMI, primary screen, biochemical, fluorescence intensity, coupled assay (AID 1209)
T4 sequence (P34949 whole entry): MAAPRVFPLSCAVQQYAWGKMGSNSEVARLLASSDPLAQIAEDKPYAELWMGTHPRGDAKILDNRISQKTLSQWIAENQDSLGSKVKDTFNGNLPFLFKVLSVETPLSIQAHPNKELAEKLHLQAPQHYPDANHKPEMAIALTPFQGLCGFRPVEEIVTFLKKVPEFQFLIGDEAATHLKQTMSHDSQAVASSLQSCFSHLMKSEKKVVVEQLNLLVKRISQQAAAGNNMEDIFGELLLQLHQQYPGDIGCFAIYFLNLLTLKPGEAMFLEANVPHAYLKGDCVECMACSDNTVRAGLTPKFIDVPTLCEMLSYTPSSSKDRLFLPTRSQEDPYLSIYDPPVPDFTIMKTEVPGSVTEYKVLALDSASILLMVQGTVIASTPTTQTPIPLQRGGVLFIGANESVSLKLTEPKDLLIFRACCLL

Phosphomannomutase 2 = Phosphomannomutase 2 (Homo sapiens, UniProt O15305); test: Counter screen SAR assay for PMM2 inhibitors via a fluorescence intensity assay. [Related pubchem assays (depositor defined):AID1545, AID1574]
[14] = target: T4, Mannose-6-phosphate isomerase; test: PMI enzyme inhibitors, confirmation, biochemical, fluorescence intensity (AID 1535)
[15] = target: DNA dC->dU-editing enzyme APOBEC-3G (Homo sapiens, UniProt Q9HC16); test: Dose Response confirmation of small molecule APOBEC3G DNA Deaminase Inhibitors via a fluorescence-based single-stranded DNA deaminase assay. [Related pubchem assays (depositor defined):AID493012, AID493028]; format: functional
Chain of DNA dC->dU-editing enzyme APOBEC-3G (Q9HC16 whole entry): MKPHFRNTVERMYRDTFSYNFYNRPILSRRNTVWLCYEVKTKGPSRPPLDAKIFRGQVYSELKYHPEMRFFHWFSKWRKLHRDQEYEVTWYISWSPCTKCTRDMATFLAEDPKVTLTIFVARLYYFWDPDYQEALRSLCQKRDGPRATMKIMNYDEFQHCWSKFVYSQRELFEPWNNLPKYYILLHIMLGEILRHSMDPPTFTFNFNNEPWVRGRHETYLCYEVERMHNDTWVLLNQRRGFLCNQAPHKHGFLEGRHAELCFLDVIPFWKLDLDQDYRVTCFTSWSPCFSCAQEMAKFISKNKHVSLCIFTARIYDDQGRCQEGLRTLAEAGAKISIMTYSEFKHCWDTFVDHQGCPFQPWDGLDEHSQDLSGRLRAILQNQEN

T1 sequence (P0AE70 whole entry): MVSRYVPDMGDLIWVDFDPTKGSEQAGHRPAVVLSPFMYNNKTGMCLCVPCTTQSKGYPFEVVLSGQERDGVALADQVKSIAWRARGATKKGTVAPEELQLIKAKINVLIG
T2 sequence (P11940 whole entry): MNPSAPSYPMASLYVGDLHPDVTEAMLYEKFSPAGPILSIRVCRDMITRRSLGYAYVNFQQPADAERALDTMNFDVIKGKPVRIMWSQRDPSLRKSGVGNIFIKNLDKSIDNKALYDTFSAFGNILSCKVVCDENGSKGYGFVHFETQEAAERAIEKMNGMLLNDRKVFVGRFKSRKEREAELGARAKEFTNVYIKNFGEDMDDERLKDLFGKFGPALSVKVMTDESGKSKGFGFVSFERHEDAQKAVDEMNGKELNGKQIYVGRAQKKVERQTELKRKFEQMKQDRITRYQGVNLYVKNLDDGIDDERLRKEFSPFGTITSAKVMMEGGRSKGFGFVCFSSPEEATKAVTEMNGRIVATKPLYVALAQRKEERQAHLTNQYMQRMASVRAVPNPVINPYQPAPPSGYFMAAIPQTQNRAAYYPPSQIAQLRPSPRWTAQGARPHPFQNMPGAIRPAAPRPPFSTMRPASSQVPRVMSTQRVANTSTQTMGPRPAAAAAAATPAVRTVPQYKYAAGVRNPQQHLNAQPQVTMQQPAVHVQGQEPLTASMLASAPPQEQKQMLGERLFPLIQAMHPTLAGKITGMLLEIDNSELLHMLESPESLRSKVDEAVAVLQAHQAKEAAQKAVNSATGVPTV
Chain of Cysteine protease ATG4B (Q9Y4P1 whole entry): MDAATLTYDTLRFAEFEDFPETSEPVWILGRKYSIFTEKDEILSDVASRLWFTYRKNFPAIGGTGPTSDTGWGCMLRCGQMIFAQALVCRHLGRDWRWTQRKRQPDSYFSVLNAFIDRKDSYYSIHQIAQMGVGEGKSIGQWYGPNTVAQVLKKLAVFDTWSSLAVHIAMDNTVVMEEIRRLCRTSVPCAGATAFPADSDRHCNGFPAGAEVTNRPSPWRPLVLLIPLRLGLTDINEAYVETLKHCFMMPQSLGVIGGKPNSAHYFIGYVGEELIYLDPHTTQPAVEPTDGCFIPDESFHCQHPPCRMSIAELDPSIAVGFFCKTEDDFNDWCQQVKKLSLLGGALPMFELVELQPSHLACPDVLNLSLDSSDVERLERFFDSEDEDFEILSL
Chain of DNA topoisomerase (A0A2S9PM60 whole entry): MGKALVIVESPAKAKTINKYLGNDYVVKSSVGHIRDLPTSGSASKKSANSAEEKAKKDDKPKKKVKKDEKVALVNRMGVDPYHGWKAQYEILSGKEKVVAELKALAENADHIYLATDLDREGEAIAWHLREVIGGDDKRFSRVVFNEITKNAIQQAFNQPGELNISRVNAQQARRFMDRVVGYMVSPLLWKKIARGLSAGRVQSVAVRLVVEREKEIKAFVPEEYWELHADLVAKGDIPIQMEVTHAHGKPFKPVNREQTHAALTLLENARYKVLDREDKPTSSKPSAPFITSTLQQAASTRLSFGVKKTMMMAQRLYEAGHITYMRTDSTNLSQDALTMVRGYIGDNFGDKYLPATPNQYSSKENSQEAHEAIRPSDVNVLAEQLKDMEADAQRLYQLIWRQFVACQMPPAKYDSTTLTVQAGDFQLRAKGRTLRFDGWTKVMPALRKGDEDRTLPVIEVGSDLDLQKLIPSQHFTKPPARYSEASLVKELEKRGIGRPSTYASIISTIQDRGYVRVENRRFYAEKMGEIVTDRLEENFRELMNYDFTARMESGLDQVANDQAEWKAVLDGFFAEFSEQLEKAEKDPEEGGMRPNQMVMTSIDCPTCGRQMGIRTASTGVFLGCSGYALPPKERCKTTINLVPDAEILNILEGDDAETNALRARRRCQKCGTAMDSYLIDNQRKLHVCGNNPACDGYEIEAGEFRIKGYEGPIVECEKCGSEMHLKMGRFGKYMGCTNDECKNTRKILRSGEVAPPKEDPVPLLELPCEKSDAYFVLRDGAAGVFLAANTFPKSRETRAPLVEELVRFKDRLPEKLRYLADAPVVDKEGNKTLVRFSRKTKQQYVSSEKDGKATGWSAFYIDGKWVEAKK
Chain of Beta-galactosidase (Q8VNN2 whole entry): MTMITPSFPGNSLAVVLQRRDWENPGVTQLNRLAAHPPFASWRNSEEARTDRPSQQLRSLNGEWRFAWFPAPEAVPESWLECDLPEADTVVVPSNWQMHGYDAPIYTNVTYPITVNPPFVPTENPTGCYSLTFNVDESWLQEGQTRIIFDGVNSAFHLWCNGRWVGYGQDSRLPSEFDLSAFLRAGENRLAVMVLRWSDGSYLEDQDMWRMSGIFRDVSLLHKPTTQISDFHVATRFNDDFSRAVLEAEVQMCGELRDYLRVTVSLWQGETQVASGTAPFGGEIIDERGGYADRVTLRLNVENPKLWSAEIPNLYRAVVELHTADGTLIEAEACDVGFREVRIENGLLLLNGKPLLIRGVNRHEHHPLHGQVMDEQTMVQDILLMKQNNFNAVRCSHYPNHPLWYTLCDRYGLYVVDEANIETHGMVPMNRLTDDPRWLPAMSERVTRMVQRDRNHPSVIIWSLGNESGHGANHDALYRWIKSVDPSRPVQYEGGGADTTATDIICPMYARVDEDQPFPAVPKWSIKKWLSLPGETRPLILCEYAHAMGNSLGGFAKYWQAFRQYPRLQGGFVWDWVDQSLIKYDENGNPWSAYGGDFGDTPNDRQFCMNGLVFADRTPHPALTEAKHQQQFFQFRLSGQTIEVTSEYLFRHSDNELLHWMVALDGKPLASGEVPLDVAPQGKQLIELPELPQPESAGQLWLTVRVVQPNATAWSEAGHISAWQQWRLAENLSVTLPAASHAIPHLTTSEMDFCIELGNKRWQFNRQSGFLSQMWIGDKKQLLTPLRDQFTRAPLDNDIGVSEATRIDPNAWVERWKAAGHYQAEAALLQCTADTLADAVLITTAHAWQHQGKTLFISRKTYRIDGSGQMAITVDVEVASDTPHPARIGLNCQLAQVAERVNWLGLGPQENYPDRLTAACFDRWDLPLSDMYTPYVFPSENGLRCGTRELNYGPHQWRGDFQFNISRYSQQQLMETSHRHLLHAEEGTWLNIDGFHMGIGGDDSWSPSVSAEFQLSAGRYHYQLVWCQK
Chain of Phospholipase A2 (P04054 whole entry): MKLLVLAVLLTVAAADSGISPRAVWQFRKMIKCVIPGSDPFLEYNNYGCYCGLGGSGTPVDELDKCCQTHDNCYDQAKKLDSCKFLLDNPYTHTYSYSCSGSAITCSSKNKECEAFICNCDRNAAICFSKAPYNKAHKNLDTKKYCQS
Chain of DNA dC->dU-editing enzyme APOBEC-3A (P31941 whole entry): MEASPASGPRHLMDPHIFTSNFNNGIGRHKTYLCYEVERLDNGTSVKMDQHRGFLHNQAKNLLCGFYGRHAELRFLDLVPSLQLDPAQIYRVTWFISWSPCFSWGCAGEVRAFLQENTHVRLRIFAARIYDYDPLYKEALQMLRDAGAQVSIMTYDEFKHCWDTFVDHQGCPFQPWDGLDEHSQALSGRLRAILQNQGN
Chain of Phosphomannomutase 2 (O15305 whole entry): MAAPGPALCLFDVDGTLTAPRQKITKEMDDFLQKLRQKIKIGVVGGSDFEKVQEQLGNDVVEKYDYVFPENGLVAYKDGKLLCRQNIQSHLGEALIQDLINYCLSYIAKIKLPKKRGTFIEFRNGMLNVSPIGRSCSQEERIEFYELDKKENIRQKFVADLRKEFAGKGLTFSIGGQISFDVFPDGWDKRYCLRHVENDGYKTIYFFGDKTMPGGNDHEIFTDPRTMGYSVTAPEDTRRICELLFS

For `CC(=O)N/N=C(\C)c1ccc(NC(=O)C2CC2)cc1`, the EC50 [1] was 500 µM (inactive).
With `Cc1cc(C(=O)COC(=O)Cc2nnc(O)c3ccccc23)c(C)n1-c1cccc(C(F)(F)F)c1` the AC50 (DNA topoisomerase) was 11.4 µM (active).
In the case of `Cc1ccc(NC(=O)COc2ccc(N(C)C(=O)C(C)(C)C)cc2)cc1S(=O)(=O)N1CCCCC1`, the AC50 (INS1) is reported as 5.61 µM (active), the IC50 (Jurkat [2]) is reported as 8.2 µM (active) and the IC50 [3] is reported as > 80 µM (inactive).
With `CCOC(=O)c1c(N=C(S)Nc2ccc(Cl)cc2)sc2c1CCN(C)C2` the EC50 [4] was > 99 µM (inactive) and the EC50 [5] was > 99 µM (inactive).
For `O=C(Nc1cccc2ncccc12)c1ccc([N+](=O)[O-])o1`, the IC50 (HEK293 [6]) was 69.4 µM (inactive), the IC50 (Jurkat [7]) was 21.8 µM (inactive) and the IC50 (HEK293 [8]) was 23.4 µM (inactive).
In the case of `Cc1c(Cl)cccc1NC(=S)NNc1ncc(C(F)(F)F)cc1Cl`, the IC50 [9] is reported as > 66 µM (inactive), the IC50 [10] is reported as > 66 µM (inactive) and the IC50 [11] is reported as 11.9 µM (active). For the same molecule, the EC50 (Beta-galactosidase) was > 40 µM (inactive).
In the case of `O=C(NCc1cccc(C(F)(F)F)c1)C1CC(c2c(Cl)cccc2Cl)=NO1` (stereo unspecified), the IC50 (Cysteine protease ATG4B) is reported as > 80 µM (inactive) and the IC50 (Phospholipase A2) is reported as 46.4 µM (inactive).
With `S=c1[nH]nc(C2COc3ccccc3O2)[nH]1` (stereo unspecified) the IC50 [12] was > 100 µM (inactive), the IC50 [13] was 7.29 µM (active) and the IC50 (Phosphomannomutase 2) was > 100 µM (inactive). The IC50 [14] was 3.89 µM (active) and the IC50 [15] was 4.34 µM (active).
